Five molecules from paper PMC12115217, “3,3′-((3-Hydroxyphenyl)azanediyl)dipropionic Acid Derivatives as a Promising Scaffold Against Drug-Resistant Pathogens and Chemotherapy-Resistant Cancer” (Pathogens, 2025) can be followed below.

≈ marks a conversion by molar mass, not a printed value. Entries after “also recorded” stand apart in the source; their conditions may differ. Structures can show the parent of a compound that is named as a salt. Where only a bound is given, the exact number is not on record here.

Data set [1] has as its system S. aureus TCH 1516. Kind of data set: Broth microdilution MIC, S. aureus TCH 1516. Format: cell-based. As to conditions: Staphylococcus aureus, MRSA / USA300, mecA MRSA isolate, USA300 lineage; CAMHB, 18 ±; read-out: minimal inhibitory concentration (MIC) S. aureus TCH 1516. Background: In broth dilution the organism is exposed to a series of concentrations in liquid medium.

The next data set has as its system E. faecalis AR-0671. Kind of data set: Broth microdilution MIC, E. faecalis AR-0671. Format: cell-based, Enterococcus faecalis. As to conditions: Enterococcus faecalis, AR0671; CAMHB, 18 ± 2 h; read-out: minimal inhibitory concentration (MIC) E. faecalis AR-0671.
The test system of the next data set is E. coli AR-0001. Kind of data set: Broth microdilution MIC, E. coli AR-0001. The class given is cell-based. As to conditions: Escherichia coli, AR0001; multidrug-resistant, KPC-3; CAMHB, 18 ± 2 h; read-out: minimal inhibitory concentration (MIC) E. coli AR-0001.
The subject of the next data set is HEK293 cells. Nature of the data set: MTT dose-response IC50, HEK293 cells. Format: cell-based. As to conditions: non-cancerous HEK293 cells, 24 h. How it is done:
(§1) FaDu cells were obtained from the American Type Culture Collection (Rockville, MD, USA). HEK293 cells were kindly provided by Dr. Iliev lab at the Jill Roberts Institute for Inflammatory Bowel Disease, Weill Cornel Medicine of Cornel University (New York, NY, USA). All cells were cultivated in Dulbecco’s Modified Eagle Medium/Nutrient Mixture F-12 (DMEM/F-12) (Gibco, Waltham, MA, USA), 10% fetal bovine serum (FBS) (Gibco, Waltham, MA, USA), 100 U/mL penicillin, and 100 μg/mL streptomycin (P/S) (Gibco, Waltham, MA, USA). Culturing conditions were maintained at 37 °C in a humidified atmosphere containing 5% CO2. The culture medium was refreshed every 2–3 days, and cells were passaged upon reaching 70–80% confluence.
(§2) The in vitro inhibitory effects of the compounds were assessed by using the MTT assay. Briefly, cells were plated in 96-well plates at a density of 1 × 10⁴ cells per well. After the cells were allowed to adhere overnight at 37 °C in 5% CO₂, they were treated with compounds at a concentration of 100 µM in triplicate. Following a 20 h incubation, the MTT reagent was added, and the cells were further incubated for 4 h. The resulting formazan was solubilized in anhydrous DMSO, and absorbance was measured at 570 nm by using a microplate reader. Cell viability was calculated by using the following formula: ([AE − AB]/[AC − AB]) × 100%, where AE, AC, and AB represent the absorbance values of experimental samples, untreated controls, and blank wells, respectively. Data analysis was performed by using GraphPad Prism or QuickCalcs.
(§3) The data were fitted to a nonlinear regression model (GraphPad Prism version 9.0, GraphPad Software, San Diego, CA, USA) to calculate the IC50 values for each compound tested in triplicate.

In a further data set the test system is P. aeruginosa AR-1114. Kind of data set: Broth microdilution MIC, P. aeruginosa AR-1114. As to conditions: Pseudomonas aeruginosa, AR1114; IMP-15; CAMHB, 18 ± 2 h; read-out: minimal inhibitory concentration (MIC) P. aeruginosa AR-1114. The class given is cell-based.
Another data set has as its system A. baumannii AR-0273. Nature of the data set: Broth microdilution MIC, A. baumannii AR-0273. Format: cell-based, Acinetobacter baumannii. To be noted: Acinetobacter baumannii, AR0273; OXA-23; CAMHB, 18 ± 2 h; read-out: minimal inhibitory concentration (MIC) A. baumannii AR-0273.
The test system of data set [2] is FaDu cells. Kind of data set: MTT dose-response IC50, FaDu cells. To be noted: 0–100 µM, 24 h. Format: cell-based. The method, then: as §1, §2, §3
Data set [3] deals with FaDu cells. Kind of data set: Hydrogen peroxide production assay in FaDu cells. Format: cell-based. As to conditions: 6 h, 0.25% DMSO, versus untreated control. The method, then:
FaDu cells were seeded on the 6-well plates and incubated with the compounds as described before. After incubation, cells were cooled down on ice, washed two times with ice-cold PBS, and scraped in PBS. Cells were centrifuged at 10,000× g for 10 min at 4 °C, the supernatant was discarded, and 650 µL of ice-cold PBS was added. Cells were sonicated and centrifuged at 10,000× g for 10 min at 4 °C to remove cell debris. The resulting supernatant was carefully collected for subsequent hydrogen peroxide analysis by using a commercial kit (Pierce™ Quantitative Peroxide Assay Kit (Aqueous), Catalog number 23280) (Invitrogen, ThermoFisher Scientific, Waltham, MA, USA).

The subject of data set [4] is FaDu cells. Kind of data set: Superoxide dismutase (SOD) activity in FaDu cell lysate. Format: cell-based. As to conditions: 6 h, 0.25% DMSO, versus untreated control (DMSO). How it is done: FaDu cells were seeded onto 6-well tissue culture plates at a density of 5 × 10^5 cells per well and incubated overnight to allow for cell attachment. Following the incubation period, the cells were treated with the selected compounds dissolved in tissue culture medium containing 0.25% DMSO and incubated for an additional 6 h. After the treatment, the medium was aspirated, and the cells were washed twice with phosphate-buffered saline (PBS) to remove residual compounds. The cells were then trypsinized for 10 min to detach them from the culture surface. Following trypsinization, the cells were collected by centrifugation, washed with ice-cold PBS to remove any residual trypsin, and resuspended in 0.5 mL of ice-cold PBS. The cell suspension was then subjected to sonication on ice for disruption. After sonication, the samples were centrifuged at 10,000× g for 10 min at 4 °C to remove cell debris. The resulting supernatant was carefully collected for the subsequent assessment of SOD activity. The activity of superoxide dismutase (SOD) was determined by using a commercial colorimetric assay kit (Superoxide Dismutase (SOD) Colorimetric Activity Kit, Catalog Number EIASODC) (Invitrogen, ThermoFisher Scientific, Waltham, MA, USA) following the manufacturer’s instructions.

Another data set has as its system K. pneumoniae AR-0003. Kind of data set: Broth microdilution MIC, K. pneumoniae AR-0003. As to conditions: Klebsiella pneumoniae, AR0003; KPC-3; CAMHB, 18 ± 2 h; read-out: minimal inhibitory concentration (MIC) K. pneumoniae AR-0003. The class given is cell-based.
The subject of data set [5] is FaDu cells. Nature of the data set: MTT cell viability at fixed 100 µM, FaDu cells. To be noted: 24 h, described in words (Figure 2). Format: cell-based. The method, then:
Test compounds 2–25 were dissolved in hybridoma-grade dimethyl sulfoxide (Millipore, Sigma, Burlington, MA, USA) to prepare stock solutions at concentrations of 10–25 mg/mL. […] For in vitro anticancer activity screening, the compounds were thawed at room temperature, protected from light, and the aliquots were diluted in complete cell culture media to achieve a final concentration of 100 µM and used for the in vitro assays. The cytotoxicity assays were performed in triplicate.
as §1, §2

Data set [6] concerns S. aureus TCH 1516. Kind of data set: Broth microdilution MIC, S. aureus TCH 1516. Format: cell-based, Staphylococcus aureus. As to conditions: mecA MRSA isolate, USA300 lineage; CAMHB, 18 ± 2 h. The source says:
The multidrug-resistant S. aureus strain TCH 1516 [USA 300-HOU-MR] was obtained from the American Type Culture Collection (ATCC, Manassas, VA, USA) (Table 1). E. faecalis AR-0671, multidrug-resistant E. coli AR-0001, K. pneumoniae AR-0003, P. aeruginosa AR-1114, and A. baumannii AR-0273 strains were acquired from the Centers for Disease Control and Prevention (CDC) AR isolate bank (Table 1). Prior to the initiation of this study, all microbial strains were stored in commercial cryopreservation systems at a temperature of −80 °C. The strains were cultivated on Columbia sheep blood agar (Becton Dickinson, Franklin Lakes, NJ, USA) or potato dextrose agar (PDA) for Candida (Becton Dickinson, Franklin Lakes, NJ, USA).
The antimicrobial activity of 3-((3-hydroxyphenyl)amino)propanoic acid derivatives was assessed by using the broth microdilution method, following the guidelines outlined by the Clinical Laboratory Standards Institute (CLSI), with modifications. In brief, the compounds were dissolved in dimethyl sulfoxide (DMSO) to attain a final concentration of 25–30 mg/mL. Vancomycin hydrochloride (MedChem express, Cat. No. HY-17362), cefazolin (MedChem express, Cat. No. HY-B1892), and meropenem (MedChem express, Cat. No. HY-13678) were used as control antimicrobial drugs and were dissolved in DMSO as described before. Dilution series were prepared in deep 96-well microplates to achieve a two-fold concentration range of 0.25, 0.5, 1, 2, 4, 8, 16, 32, and 64 µg/mL, utilizing cation-adjusted Mueller–Hinton broth (CAMHB) as the growth medium. The microplates containing the dilution series were then inoculated with fresh cultures of each tested organism to reach a final concentration of 5 × 10^4 CFU (colony-forming units) of the test organism in media containing 1% DMSO and 1× drug concentration, with a volume of 200 µL per well. Wells that were inoculated with medium containing 1% DMSO served as positive controls. Subsequently, the microplates were incubated at 35 ± 1 °C for 18 ± 2 h. Following the incubation period, the plates were examined by using a manual microplate viewer (Sensititre Manual Viewbox, ThermoFisher Scientific, Waltham, MA, USA). […] All experiments were conducted in duplicate with three technical replicates for each condition.

Turning to `O=C1CCN(c2cccc(O)c2)C(=O)N1` [Compound 5, 1-(3-Hydroxyphenyl)dihydropyrimidine-2,4(1H,3H)-dione], the MIC in the data set on S. aureus TCH 1516 [1] was 16 µg/mL (≈ 77.6 µM); in the data set on E. faecalis AR-0671, 32 µg/mL (≈ 155 µM); in the data set with E. coli AR-0001, over 64 µg/mL; in the data set with P. aeruginosa AR-1114, over 64 µg/mL; in the data set on A. baumannii AR-0273, over 64 µg/mL; with K. pneumoniae AR-0003, over 64 µg/mL. Further, the IC50 in the data set with HEK293 cells (Homo sapiens) was found to be 41.8 µM; with FaDu cells [2] (Homo sapiens), 9.9 µM. Also, the “hydrogen peroxide levels (optical density at 525 nm)” value (shortened to “hydrogen peroxide levels”) in the data set on FaDu cells [3] was “significantly higher”. In addition, in the data set on FaDu cells [4], the “SOD activity (U/mL of cell lysate)” value is recorded as “significantly higher”.
For the molecule `O=C(CCN(CCC(=O)N/N=C1\C(=O)Nc2ccccc21)c1cccc(O)c1)N/N=C1\C(=O)Nc2ccccc21` [Compound 25], the MIC in the data set on S. aureus TCH 1516 [1] is 32 µg/mL (≈ 59.3 µM); with E. faecalis AR-0671, 16 µg/mL (≈ 29.7 µM); in the data set with E. coli AR-0001, 64 µg/mL (≈ 119 µM); in the data set with P. aeruginosa AR-1114 it was over 64 µg/mL; in the data set on A. baumannii AR-0273 it was over 64 µg/mL; with K. pneumoniae AR-0003 it was over 64 µg/mL. Further, the half-inhibitory concentration (IC50) in the data set on HEK293 cells (Homo sapiens) is 11.7 µM; in the data set with FaDu cells [2] (Homo sapiens), 5.28 µM. Besides, the “hydrogen peroxide levels” value in the data set with FaDu cells [3] is recorded as “significantly higher”. In addition, the “post-treatment viability (MTT assay)” value with FaDu cells [5] is “most promising reduction in cell viability”. Moreover, the “SOD activity (U/mL of cell lysate)” value in the data set on FaDu cells [4] is recorded as “significantly higher; also recorded: highest SOD activity”.
`O=C1CCN(c2cccc(O)c2)C(=S)N1` [Compound 6, 1-(3-Hydroxyphenyl)-2-thioxotetrahydropyrimidin-4(1H)-one]: the MIC is 8 µg/mL (≈ 36 µM) in the data set with S. aureus TCH 1516 [1]; 32 µg/mL (≈ 144 µM) in the data set with E. faecalis AR-0671; over 64 µg/mL in the data set on E. coli AR-0001; over 64 µg/mL in the data set on P. aeruginosa AR-1114; over 64 µg/mL in the data set on A. baumannii AR-0273; over 64 µg/mL in the data set on K. pneumoniae AR-0003. Moreover, the IC50 in the data set on HEK293 cells (Homo sapiens) was 22.6 µM; in the data set with FaDu cells [2] (Homo sapiens), 13.4 µM. The “minimal inhibitory concentration (MIC) S. aureus TCH 1516” value in the data set with S. aureus TCH 1516 [6] was 16 µg/mL (≈ 72 µM). In addition, the “hydrogen peroxide levels” value with FaDu cells [3] is “significantly higher”. Moreover, the “post-treatment viability (MTT assay)” value in the data set on FaDu cells [5] is given as “most promising reduction in cell viability”. For the same molecule, the “SOD activity (U/mL of cell lysate)” value in the data set with FaDu cells [4] is “significantly higher”.
As to `N.N.[Cl][Pt][Cl]` [CP, Cisplatin, reference compound], the results for the IC50 in the data set on HEK293 cells and in the data set on FaDu cells [2] were 15.9 µM and 16.3 µM, respectively. Moreover, in the data set on FaDu cells [3], the “hydrogen peroxide levels” value is “lower level of hydrogen peroxide production than the tested compounds”.
Take `COc1cccc2c1C(=O)c1c(O)c3c(c(O)c1C2=O)C[C@@](O)(C(=O)CO)C[C@@H]3O[C@H]1C[C@H](N)[C@H](O)[C@H](C)O1` [DOX, doxorubicin hydrochloride, reference compound]: the IC50 in the data set on FaDu cells [2] (Homo sapiens) was 1.81 µM. The “hydrogen peroxide levels” value in the data set on FaDu cells [3] is “significant increase”.

One may read the IC50 as the concentration needed to halve the response being measured.
